In publication PMC9598656, “In Vitro Activity of Robenidine Analogues NCL259 and NCL265 against Gram-Negative Pathogens” (Antibiotics, 2022):
Values after ≈ are worked out from the molar mass of the structure shown.

How the values were obtained:
Assay type in all cases: cell-based
[1] = test system: Caco-2 (human colorectal adenocarcinoma cell line); experiment: In vitro cytotoxicity, WST-1; conditions: Caco-2, 24 h
[2] = test system: sheep red blood cells (SRBCs); experiment: Hemolysis assay; conditions: 1 h
Experimental: The haemolytic activity of the compounds was determined using 1% sheep red blood cells (SRBCs), as described previously. […]. After incubation at 37 °C with shaking at 100 rpm for 1 h, the trays were centrifuged at 1000× g for 3 min and 100 μL of supernatant from each well was transferred into a new 96-well tray. Absorbance was measured at A450nm on a Multiskan Ascent 354 Spectrophotometer (Labsystems) and plotted against each dilution. The haemolytic titre (HC50) of each compound was determined as the reciprocal of the dilution at which 50% of SRBCs were lysed at A450nm.

[3] = test system: HEL 299 (non-cancerous human lung fibroblast cell line); experiment: In vitro cytotoxicity, WST-1; conditions: HEL 299, 24 h
Excerpt: (§1) Potential toxicity of NCL259 and NCL265 to mammalian cells relative to the parent compound (NCL812) was examined using Caco-2 (human colorectal adenocarcinoma cell line), HEL 299 (non-cancerous human lung fibroblast cell line), Hep G2 (human hepatocellular carcinoma cell line), MCF-7 (human mammary gland adenocarcinoma cell line), MDBK (normal Madin–Darby bovine kidney cell line) and Vero (normal adult African green monkey cell line), essentially as described previously. Toxicity to the cell lines was performed using serial two-fold dilutions of each compound from 128 to 1 μg/mL in duplicates in flat bottom 96 well tissue culture trays (Sarstedt 83.3924) containing approximately 2 × 10^4 cells per well in antibiotic-free Dulbecco’s Modified Eagle’s Medium (DMEM; Gibco Cat No: 12430; Thermo Fisher Scientific, Scoresby, VIC, Australia) consisting of 10% (v/v) fetal bovine serum at 37 °C, 5% CO2 for 24 h. Duplicate wells containing ampicillin at 128 to 1 μg/mL were used as controls. Thereafter, 10% (v/v) of the WST-1 cell proliferation assay reagent (Cat No: 05015944001; Roche Life Science, North Ryde, NSW, Australia) was added to each well, the trays were further incubated at 37 °C, 5% CO2 for 1 h and absorbance read at A450nm on a Multiskan Ascent 354 Spectrophotometer (Labsystems, Lilydale, VIC, Australia). The inhibitory concentration of each compound was determined as the half maximal inhibitory concentration (IC50) at A450nm.

[4] = test system: MCF-7 (human mammary gland adenocarcinoma cell line); experiment: In vitro cytotoxicity, WST-1; conditions: MCF7, 24 h
Excerpt: as §1

[5] = test system: Hep G2 (human hepatocellular carcinoma cell line); experiment: In vitro cytotoxicity, WST-1; conditions: HepG2, 24 h
Excerpt: as §1

[6] = test system: Vero (normal adult African green monkey cell line); experiment: In vitro cytotoxicity, WST-1; conditions: Chlorocebus sabaeus, 24 h
Excerpt: as §1

[7] = test system: MDBK (normal Madin–Darby bovine kidney cell line); experiment: In vitro cytotoxicity, WST-1; conditions: Bos taurus, 24 h
Excerpt: as §1

[8] = first of two independent experiments
[9] = second of two independent experiments

| Compound | IC50 [1, 8] [µg/mL] | IC50 [1, 9] [µg/mL] | HC50 ([2]; sheep) | IC50 [3, 8] [µg/mL] | IC50 [3, 9] [µg/mL] | IC50 [4, 8] [µg/mL] | IC50 [4, 9] [µg/mL] | IC50 [5, 8] [µg/mL] | IC50 [5, 9] [µg/mL] | IC50 [6, 8] [µg/mL] | IC50 [6, 9] [µg/mL] | IC50 [7, 8] [µg/mL] | IC50 [7, 9] [µg/mL] | HC50 ([2]; 1% SRBC, first of two independent experiments) | HC50 ([2]; 1% SRBC, second of two independent experiments) |
| --- | --- | --- | --- | --- | --- | --- | --- | --- | --- | --- | --- | --- | --- | --- | --- |
| N=C(N/N=C/c1ccc(Cl)cc1)N/N=C/c1ccc(Cl)cc1 [NCL812, Robenidine] | 8 (≈ 23.9 µM) | 12 (≈ 35.9 µM) | 32, 32 μg/mL | 8 (≈ 23.9 µM) | 6 (≈ 18 µM) | 8 (≈ 23.9 µM) | 12 (≈ 35.9 µM) | 6 (≈ 18 µM) | 8 (≈ 23.9 µM) | 8 (≈ 23.9 µM) | 4 (≈ 12 µM) | 8 (≈ 23.9 µM) | 12 (≈ 35.9 µM) | – | – |
| CC1(C)S[C@@H]2[C@H](NC(=O)[C@H](N)c3ccccc3)C(=O)N2[C@H]1C(=O)O [Ampicillin, reference compound] | – | – | – | > 128 | > 128 | > 128 | > 128 | > 128 | > 128 | > 128 | > 128 | > 128 | > 128 | >128, >128 μg/mL | >128, >128 μg/mL |
